# Measurements reported in article PMC12370193, “An L-fucose-responsive transcription factor cross-regulates the expression of a diverse array of carbohydrate-active enzymes in Trichoderma reesei” (PLOS Genetics, 2025).
# Target: T1, FDH1 (Trichoderma reesei, UniProt G0RGU7)
# T1 construct: gene TRIREDRAFT_60517; full-length re-annotated 302-aa protein (database gene model may differ; S1 Data); codon-optimized; pET-32a(+), E. coli BL21(DE3); N-terminal His6 tag
# Assay: NADH formation at […] nm, initial rates, Hill equation fit
# Type: biochemical
# Details: NAD+ co-substrate (0.5 mM in standard assay), 50 mM Tris-HCl pH 9.0, 30 °C
# T1 sequence (G0RGU7 entry or part of it): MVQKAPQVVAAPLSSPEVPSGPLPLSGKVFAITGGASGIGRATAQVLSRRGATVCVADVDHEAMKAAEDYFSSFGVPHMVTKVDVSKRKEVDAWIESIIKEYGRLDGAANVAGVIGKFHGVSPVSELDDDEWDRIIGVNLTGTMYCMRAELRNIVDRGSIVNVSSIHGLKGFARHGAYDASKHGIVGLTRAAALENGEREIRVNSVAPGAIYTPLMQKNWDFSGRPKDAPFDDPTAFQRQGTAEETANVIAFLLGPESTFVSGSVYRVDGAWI
structure (smiles),measurement,value
"C[C@@H]1OC(O)[C@@H](O)[C@H](O)[C@@H]1O (stereo partly drawn) [L-fucose, 6-deoxy-L-galactose]",Km,546 µM
